Values of other authors, collected in patent publication US20250131989A1, “LABORATORY CALIBRATION SYSTEM OF MATERIALS FOR USAGE IN SIMULATIONS AND FORECAST OF DISSOLUTION, DISINTEGRATION, DIFFUSION, COMPRESSION, DEFORMATION AND OTHER RELATED MATERIAL PROPERTIES AND CORRESPONDING METHOD THEREOF” (CINCAP GMBH, priority 2021, published 2025).

Assays:
[1] = key 7 (solubility vs. pH data point); example JSON database record, producer CINCAP
[2] = example JSON database record, producer CINCAP

Cn1c(=O)c2[nH]cnc2n(C)c1=O [Theophilline]
solubility [1]: “solubility”:[{“key”:7, “value”:7.36}],
diffusivity [2]: “diffusivity”:6.16e−10,
